In ChEMBL document CHEMBL5625244, “Synthesis of cannabidiol-based compounds as ACE2 inhibitors with potential application in the treatment of COVID-19” (Eur J Med Chem, 2023):
Calls of active or inactive are those of the source. The calls are words filed in the database; no cut-off is given here.

Tests used:
SARS-CoV-2 = assay: Antiviral activity against SARS-CoV-2 Wuhan infected in african green monkey Vero cells pre-infected for 1 hr followed by compound addition and measured after 48 hrs by RT-qPCR analysis; assay type: functional, organism-based; settings: Severe acute respiratory syndrome coronavirus 2, Wuhan
[1] = Cytotoxicity against African green monkey Vero cells assessed as reduction in cell viability upto 100 uM incubated for 48 hrs by Alamar blue assay; assay type: toxicity, cell-based; settings: chlorocebus sabaeus
[2] = target: T1, Angiotensin-converting enzyme 2 (Homo sapiens, UniProt Q9BYF1); assay: Inhibition of human ACE2 using Mca-APK(Dnp) as substrate incubated for 30 mins by fluorometer analysis
Target sequence in this assay (Q9BYF1 whole entry): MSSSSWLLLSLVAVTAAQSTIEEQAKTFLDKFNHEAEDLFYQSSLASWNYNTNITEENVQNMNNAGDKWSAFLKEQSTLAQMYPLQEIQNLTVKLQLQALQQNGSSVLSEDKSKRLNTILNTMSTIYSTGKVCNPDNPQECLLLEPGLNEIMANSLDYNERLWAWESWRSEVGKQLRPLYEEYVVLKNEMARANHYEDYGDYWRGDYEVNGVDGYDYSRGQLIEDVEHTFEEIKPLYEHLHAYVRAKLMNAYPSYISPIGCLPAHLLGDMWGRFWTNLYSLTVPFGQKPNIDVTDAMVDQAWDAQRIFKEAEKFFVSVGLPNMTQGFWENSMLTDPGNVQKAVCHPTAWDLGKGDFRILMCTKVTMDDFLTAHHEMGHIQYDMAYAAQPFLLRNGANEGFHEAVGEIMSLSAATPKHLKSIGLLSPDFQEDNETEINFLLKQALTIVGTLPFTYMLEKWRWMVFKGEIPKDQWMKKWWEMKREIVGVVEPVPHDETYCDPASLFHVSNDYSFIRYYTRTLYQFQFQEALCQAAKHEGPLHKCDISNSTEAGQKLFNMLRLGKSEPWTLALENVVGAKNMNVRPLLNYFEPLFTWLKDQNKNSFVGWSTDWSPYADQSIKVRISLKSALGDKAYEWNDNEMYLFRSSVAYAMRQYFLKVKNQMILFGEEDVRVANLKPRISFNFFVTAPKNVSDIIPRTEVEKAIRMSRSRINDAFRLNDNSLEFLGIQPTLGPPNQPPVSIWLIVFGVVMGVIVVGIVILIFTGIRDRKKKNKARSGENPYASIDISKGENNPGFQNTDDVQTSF

[3] = target: T1, Angiotensin-converting enzyme 2; assay: Inhibition of human ACE2 using Mca-APK(Dnp) as substrate at 10 nM incubated for 30 mins by fluorometer analysis
Target sequence in this assay (Q9BYF1 18-805 limits assumed): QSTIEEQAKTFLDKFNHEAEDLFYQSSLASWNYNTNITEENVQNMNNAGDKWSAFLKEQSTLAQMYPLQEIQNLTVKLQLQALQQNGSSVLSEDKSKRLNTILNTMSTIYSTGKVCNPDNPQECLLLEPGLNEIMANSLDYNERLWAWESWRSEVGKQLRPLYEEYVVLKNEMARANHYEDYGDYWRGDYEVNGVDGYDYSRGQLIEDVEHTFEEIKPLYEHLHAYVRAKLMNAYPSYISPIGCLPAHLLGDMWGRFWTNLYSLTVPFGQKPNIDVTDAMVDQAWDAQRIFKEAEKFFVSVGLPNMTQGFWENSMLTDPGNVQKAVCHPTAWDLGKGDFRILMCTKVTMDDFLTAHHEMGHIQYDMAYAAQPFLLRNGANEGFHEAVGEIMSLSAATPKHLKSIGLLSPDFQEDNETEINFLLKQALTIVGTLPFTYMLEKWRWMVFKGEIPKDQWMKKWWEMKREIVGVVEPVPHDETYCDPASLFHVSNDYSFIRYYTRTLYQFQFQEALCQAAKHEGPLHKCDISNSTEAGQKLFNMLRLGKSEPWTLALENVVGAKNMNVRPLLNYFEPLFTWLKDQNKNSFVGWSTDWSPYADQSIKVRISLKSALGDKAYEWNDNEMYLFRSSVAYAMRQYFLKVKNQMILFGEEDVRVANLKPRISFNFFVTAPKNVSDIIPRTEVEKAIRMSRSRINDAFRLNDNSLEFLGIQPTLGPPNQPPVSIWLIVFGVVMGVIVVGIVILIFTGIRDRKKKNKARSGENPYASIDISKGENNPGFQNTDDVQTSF

SMILES | IC50 (SARS-CoV-2) | Activity [1] | IC50 [2] | inhibition [3]
C=C(C)[C@@H]1CC=C(C)C(c2c(O)cc(CCCCC)cc2O)C1 (stereo partly specified) | 6.3 µM | Non-Toxic | – | –
C=C(C)[C@@H]1CCC(C)=C[C@H]1c1c(OCCCC)cc(CCCCC)cc1OCCCC | – | – | 0.17 µM | –
CCCCCc1cc(O)cc2c1C1CC(C)(C)CC(C)(C1)O2 (stereo unspecified) | – | – | 0.01 µM | Active
C=C(C)[C@@H]1CCC(C)=C[C@H]1c1c(OCC(=O)OCC)cc(CCCCC)cc1OCC(=O)OCC | – | – | 0.37 µM | –
CCCCCc1cc(O)c(C2C=C(C)CC(C)(C)C2)c(O)c1 (stereo unspecified) | – | – | 3.96 µM | –
CC(=O)NCC(=O)N[C@@H](CC(=O)O)C(=O)N[C@@H](Cc1ccc(O)cc1)C(=O)N[C@@H](CO)C(=O)N[C@@H](Cc1cnc[nH]1)C(=O)N[C@H]1CSSC[C@@H](C(=O)N[C@H](C(=O)N[C@@H](Cc2ccc(O)cc2)C(=O)N2CCC[C@H]2C(=O)N[C@@H](CC(=O)O)C(=O)N2CCC[C@H]2C(=O)N[C@@H](CCC(=O)O)C(=O)NCC(=O)NCC(=O)NCC(N)=O)[C@@H](C)O)NC(=O)[C@H](CCCCN)NC(=O)[C@H](Cc2c[nH]c3ccccc23)NC(=O)[C@H](Cc2c[nH]c3ccccc23)NC(=O)[C@@H]2CCCN2C(=O)[C@H](Cc2ccc(O)cc2)NC(=O)[C@H](Cc2ccc(O)cc2)NC(=O)[C@H](CCCNC(=N)N)NC(=O)[C@H](CC(C)C)NC(=O)[C@@H]2CCCN2C(=O)[C@H](CO)NC1=O | – | – | 8.3 µM | –
C=C(C)[C@@H]1CCC(C)=C[C@H]1c1c(O)cc(CCCCC)cc1O [CANNABIDIOL] | 72.8 µM | Non-Toxic | > 30 µM | –
CCCCCc1cc(O)c([C@@H]2C=C(C)CC[C@H]2C(C)C)c(O)c1 | 1.9 µM | Non-Toxic | 1.37 µM | –
CCCCCc1cc(OC(C)=O)c([C@@H]2C=C(C)CC[C@H]2[C@@H](C)CC=O)c(OC(C)=O)c1 | – | – | 0.04 µM | –
CCCCCc1cc(O)c([C@@H]2C=C(C)CC[C@H]2[C@@H](C)CCN2CCC(C)CC2)c(O)c1 | 6.5 µM | Non-Toxic | > 30 µM | –
C=C(C)[C@@H]1CCC(C)=C[C@H]1c1c(OCC)cc(CCCCC)cc1OCC | 9.4 µM | Non-Toxic | 0.18 µM | –
